From US20050049220A1, “Dosing regimen for Flaviviridae therapy” (priority 2003, published 2005)
Structures can show the parent of a compound that is named as a salt. Where two headings read alike, the source gives them in different places.

Assays:
HCV replicon = HCV replicon assay: HCV RNA by Q-RT-PCR, 4 days exposure; format: cell-based, hepatitis C virus (HCV); conditions: for log reduction at 10 µM: read-out: Corrected HCV RNA log10 reduction at 10 μM; for EC90: read-out: Corrected HCV RNA EC90
Description: Antiviral screening assays can be done in the same media without G418 as follows: in order to keep cells in logarithmic growth phase, seed cells in a 96-well plate at low density, for example 1000 cells per well. Add the test compound immediate after seeding the cells and incubate for a period of 3 to 7 days at 37° C. in an incubator. Media is then removed, and the cells are prepared for total nucleic acid extraction (including replicon RNA and host RNA). Replicon RNA can then be amplified in a Q-RT-PCR protocol, and quantified accordingly. […] This value is called DeltaCt (ΔCt or DCt).
This value is called DeltaCt (ΔCt or dCt).

Huh-7 cells = experiment: Cellular rRNA levels / cytotoxicity in HCV replicon cells; conditions: for log10 RNA reduction at 100 μM, rRNA: 4 days, HCV replicon transfected Huh-7 cells
Description: In a typical setting, a compound might reduce both the host RNA polymerase activity and the replicon-encoded polymerase activity. Therefore, quantification of rRNA (or any other host RNA polymerase I product) or beta-actin mRNA (or any other host RNA polymerase II) and comparison with RNA levels of the no-drug control is a relative measurement of the effect of the test compound on host RNA polymerases.
With the availability of both the HCV ΔCt data and the rRNA ΔCt, a specificity parameter can be introduced. This parameter is obtained by subtracting both ΔCt values from each other.
IFN-α-2a and ribavirin were tested over a range of concentrations for their ability to reduce the HCV RNA levels in exponentially growing replicon cells after 4 days of exposure as described (Stuyver, L. et al. “A ribonucleoside analogue that blocks the replication of bovine viral diarrhea and hepatitis C viruses in culture” Antimicrob. Agents Chemother. 2003, 47, 244-254).
Gemcitabine was dissolved in DMSO and added to the culture media of a cellular model system of Huh7 cells harboring self-replicating HCV RNA, at final concentrations ranging from […]. In such experiments, one way to express the antiviral effectiveness of a compound is to subtract the threshold reverse-transcriptase polymerase chain reactions (RT-PCR) cycle of the test compound with the average threshold RT-PCR cycle of the negative control. This value is called DeltaCt (ΔCt or dCt). With the availability of both the HCV ΔCt data and the rRNA ΔCt, a specificity parameter can be introduced. This parameter is obtained by subtracting both ΔCt values from each other.

HCV = experiment: Single treatment of an HCV-infected patient, viral load; format: in vivo, human; conditions: patient with multifocal HCC, cirrhosis, ischaemic hepatitis; HCl
Description: The tolerance was acceptable, and thus the next day the patient was given a second dosage of approximately 700 mg of gemcitabine. Before the second dosage the baseline viral load was 6.49 log copies/mL.

[1] = Hepatitis C virus, 96 h, read-out: Corrected HCV RNA log10 reduction at 100 μM
[2] = Hepatitis C virus, 96 h, 100 μM, 4 days, HCV replicon transfected Huh-7 cells, read-out: log10 RNA reduction at 100 μM, HCV
[3] = Hepatitis C virus, 96 h incubation
[4] = Hepatitis C virus, Huh-7, 96 h, read-out: log10 RNA reduction at 100 μM, HCV
[5] = 100 μM, 4 days, HCV replicon transfected Huh-7 cells
[6] = Hepatitis C virus, 96 h, 100 μM, corrected for rRNA, read-out: Corrected HCV RNA log10 reduction at 100 μM
[7] = Hepatitis C virus, 96 h, 10 μM, corrected for rRNA

SMILES | log reduction at 10 µM (HCV replicon; Hepatitis C virus, 96 h) | log reduction at 100 µM (HCV replicon; [1]) | log reduction at 100 µM (HCV replicon; [2]) | EC90 (HCV replicon; [3]) [µM] | log10 RNA reduction at 100 μM, rRNA (Huh-7 cells) [log10] | other results
CN(Cc1cnc2nc(N)nc(N)c2n1)c1ccc(C(=O)N[C@@H](CCC(=O)O)C(=O)O)cc1 [Methotrexate] | 0.15 ± 0.01 | 0.11 ± 0.09 | 0.18 ± 0.01 | > 100 | 0.07 ± 0.10 | –
O=C(O)C[C@H](NC(=O)CP(=O)(O)O)C(=O)O [PALA, N-(Phosphonoacetyl)-L-aspartate] | 1.18 ± 0.11 | 1.3 ± 0.05 | 1.77 ± 0.02 | – | 0.48 ± 0.02 | EC90 (HCV replicon; Hepatitis C virus, 96 h): 7.6 µM
NC(=O)c1csc([C@@H]2O[C@H](CO)[C@@H](O)[C@H]2O)n1 [Tiazofurin] | 0.04 ± 0.1 | -0.13 ± 0.37 | – | – | 0.99 ± 0.35 | EC90 (HCV replicon; Hepatitis C virus, 96 h): > 100 µM; log reduction at 100 µM (HCV replicon; [4]): 0.86 ± 0.27
O=c1cnn([C@@H]2O[C@H](CO)[C@@H](O)[C@H]2O)c(=S)[nH]1 [2-thio-6-azauridine] | – | – | – | – | −0.02 ± 0.12 | Corrected HCV RNA log10 reduction at 10 μM (HCV replicon; 10 μM, corrected for rRNA): 0.12 ± 0.10 log10; log10 RNA reduction at 100 μM, HCV (HCV replicon; [5]): 0.16 ± 0.04 log10; Corrected HCV RNA log10 reduction at 100 μM (HCV replicon; 100 μM, corrected for rRNA): 0.19 ± 0.09 log10; EC90 (HCV replicon; 96 h incubation): > 100 µM
CC(=O)N(O)CCCCCNC(=O)CCC(=O)N(O)CCCCCNC(=O)CCC(=O)N(O)CCCCCN [Deferoxamine] | – | – | – | > 100 | 0.92 ± 0.08 | Corrected HCV RNA log10 reduction at 10 μM (HCV replicon; 10 μM, corrected for rRNA): 0.17 ± 0.11 log10; log reduction at 100 µM (HCV replicon; [6]): 0.08 ± 0.03
COc1c(C)c2c(c(O)c1CCOP(=O)(O)CP(=O)(O)OC[C@H]1O[C@@H](n3cnc4c(N)ncnc43)[C@H](O)[C@@H]1O)C(=O)OC2 [C2-MAD] | – | – | – | – | 1.00 ± 0.15 | Corrected HCV RNA log10 reduction at 10 μM (HCV replicon; 10 μM, corrected for rRNA): 0.36 ± 0.21 log10; log10 RNA reduction at 100 μM, HCV (HCV replicon; [5]): 1.09 ± 0.21 log10; Corrected HCV RNA log10 reduction at 100 μM (HCV replicon; 100 μM, corrected for rRNA): 0.08 ± 0.24 log10; EC90 (HCV replicon; 96 h incubation): > 100 µM
NC(=O)c1ncn([C@@H]2O[C@H](CO)[C@@H](O)[C@H]2O)c1O [Mizoribine] | -0.14 ± 0.12 | 0.08 ± 0.82 | 0.29 ± 0.74 | > 100 | 0.21 ± 0.50 | –
Nc1ccn([C@@H]2C=C(CO)[C@@H](O)[C@H]2O)c(=O)n1 [CPE-C, cyclopentenylcytosine] | – | – | 2.47 ± 0.33 | – | 1.21 ± 0.16 | EC90 (HCV replicon; 96 h incubation): 2.5 µM; log reduction at 10 µM (HCV replicon; [7]): 1.43 ± 0.01; log reduction at 100 µM (HCV replicon; [6]): 1.26 ± 0.51
NC(=O)NO [Hydroxyurea] | – | -0.08 ± 0.16 | 0.17 ± 0.08 | > 100 | 0.25 ± 0.20 | log reduction at 10 µM (HCV replicon; [7]): 0.06 ± 0.04
Nc1ccn([C@@H]2O[C@H](CO)[C@@H](O)C2(F)F)c(=O)n1 [gemcitabine HCl] | – | – | – | – | – | tolerance / adverse events (HCV): acceptable
O=C1C(O)=C(CC=C(Cl)Cl)C(=O)c2ccccc21 [Dichloroallyl lawsone (NSC-126771), Dichloroallyl lawsone] | – | – | – | – | 2.13 ± 0.15 | Corrected HCV RNA log10 reduction at 10 μM (HCV replicon; 10 μM, corrected for rRNA): −0.52 ± 0.01 log10; log10 RNA reduction at 100 μM, HCV (HCV replicon; [5]): 1.27 ± 0.02 log10; Corrected HCV RNA log10 reduction at 100 μM (HCV replicon; 100 μM, corrected for rRNA): −0.86 ± 0.17 log10; EC90 (HCV replicon; 96 h incubation): > 100 µM
Cc1c(-c2ccc(-c3ccccc3F)cc2)nc2ccc(F)cc2c1C(=O)O [Brequinar (NSC-368390), Brequinar] | – | – | -0.05 ± 0.05 | > 100 | 0.29 ± 0.01 | log reduction at 10 µM (HCV replicon; [7]): -0.17 ± 0.09; log reduction at 100 µM (HCV replicon; [6]): -0.34 ± 0.04
Nc1ccn(C2OC(CO)C(O)C2=CF)c(=O)n1 (centres unmarked) [Tezacytabine] | – | – | – | – | 1.78 ± 0.69 | Corrected HCV RNA log10 reduction at 10 μM (HCV replicon; 10 μM, corrected for rRNA): 0.63 ± 0.07 log10; log10 RNA reduction at 100 μM, HCV (HCV replicon; [5]): 1.59 ± 0.08 log10; Corrected HCV RNA log10 reduction at 100 μM (HCV replicon; 100 μM, corrected for rRNA): −0.19 ± 0.49 log10; EC90 (HCV replicon; 96 h incubation): > 100 µM
O=c1[nH]c(=O)n([C@H]2C[C@H](O)[C@@H](CO)O2)cc1F [2′-deoxy-5-fluorouridine] | 0.23 ± 0.05 | 0.04 ± 0.25 | 0.76 ± 0.06 | > 100 | 0.73 ± 0.35 | –
COc1c(C)c2c(c(O)c1C/C=C(\C)CCC(=O)O)C(=O)OC2 [Mycophenolic acid] | 0.22 ± 0.01 | 0.07 ± 0.47 | 1.15 ± 0.43 | > 100 | 1.09 ± 0.28 | –
O=c1ccn(C2OC(CO)C(O)C2(F)F)c(=O)[nH]1 (centres unmarked) [dFdU] | – | – | – | – | – | dCT HCV (HCV replicon; 7.0 μM): 6.39; ddCt (HCV replicon; 7.0 μM, HCV dCt minus rRNA dCt): 4.42; dCt rRNA (Huh-7 cells; 7.0 μM): 1.96
Nc1n[nH]c(N)n1 [Guanazole] | 0.05 ± 0.08 | 0.32 ± 0.08 | – | – | 0.07 ± 0.03 | EC90 (HCV replicon; Hepatitis C virus, 96 h): > 100 µM; log reduction at 100 µM (HCV replicon; [4]): 0.25 ± 0.11
O=c1cnn([C@@H]2O[C@H](CO)[C@@H](O)[C@H]2O)c(=O)[nH]1 [6-azauridine] | – | – | 0.25 ± 0.09 | > 100 | 0.61 ± 0.18 | log reduction at 10 µM (HCV replicon; [7]): 0.12 ± 0.05; log reduction at 100 µM (HCV replicon; [6]): -0.36 ± 0.16
